In patent US20260327214A1, “1,3,4-OXADIAZOLE DERIVATIVE COMPOUNDS AS HISTONE DEACETYLASE 6 INHIBITOR, AND USES THEREOF” (CHONG KUN DANG PHARMACEUTICAL CORP., priority 2022, published 2026):

What was measured:
human recombinant HDAC1 = biological target: T1, human recombinant HDAC1 (Homo sapiens, UniProt Q13547); test: HDAC1 enzyme activity inhibition test (HDAC Fluorometric Drug Discovery Kit); type: biochemical; conditions: 30° C., 60 minutes, 10 μM substrate
T1 construct: purchased Enzo Life Science BML-SE456
T1 sequence (Q13547 whole entry): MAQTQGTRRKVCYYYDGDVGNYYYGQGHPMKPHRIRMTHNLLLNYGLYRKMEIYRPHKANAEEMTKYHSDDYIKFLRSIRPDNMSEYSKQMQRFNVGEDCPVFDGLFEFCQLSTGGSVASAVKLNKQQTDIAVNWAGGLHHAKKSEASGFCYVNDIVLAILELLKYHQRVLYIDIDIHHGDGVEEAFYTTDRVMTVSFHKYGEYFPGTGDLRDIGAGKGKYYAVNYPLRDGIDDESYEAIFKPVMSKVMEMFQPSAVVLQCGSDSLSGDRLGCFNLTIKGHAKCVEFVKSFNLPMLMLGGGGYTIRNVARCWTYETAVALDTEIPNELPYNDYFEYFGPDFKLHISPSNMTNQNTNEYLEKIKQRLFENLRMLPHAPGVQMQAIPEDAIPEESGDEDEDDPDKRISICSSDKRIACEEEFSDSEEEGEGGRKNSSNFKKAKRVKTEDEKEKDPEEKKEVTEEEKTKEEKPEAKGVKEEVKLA
Method in brief: (§1)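 IC50 derived from fluorescence (Ex 360, Em 460) following 30 min development with Developer II. Each reaction held 0.3 μg human recombinant HDAC1 or HDAC6, 10 μM Fluor de Lys SIRT1 substrate and 5-fold serially diluted compound, incubated 60 min at 30 °C.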

human recombinant HDAC6 = biological target: T2, human recombinant HDAC6 (Homo sapiens, UniProt Q9UBN7); test: HDAC6 enzyme activity inhibition test (HDAC Fluorometric Drug Discovery Kit); type: biochemical; conditions: for HDAC6 selectivity (fold): HDAC6 over HDAC1; for IC50: human recombinant HDAC6, same protocol as HDAC1
T2 construct: purchased Calbiochem 382180
T2 sequence (Q9UBN7 1-1215): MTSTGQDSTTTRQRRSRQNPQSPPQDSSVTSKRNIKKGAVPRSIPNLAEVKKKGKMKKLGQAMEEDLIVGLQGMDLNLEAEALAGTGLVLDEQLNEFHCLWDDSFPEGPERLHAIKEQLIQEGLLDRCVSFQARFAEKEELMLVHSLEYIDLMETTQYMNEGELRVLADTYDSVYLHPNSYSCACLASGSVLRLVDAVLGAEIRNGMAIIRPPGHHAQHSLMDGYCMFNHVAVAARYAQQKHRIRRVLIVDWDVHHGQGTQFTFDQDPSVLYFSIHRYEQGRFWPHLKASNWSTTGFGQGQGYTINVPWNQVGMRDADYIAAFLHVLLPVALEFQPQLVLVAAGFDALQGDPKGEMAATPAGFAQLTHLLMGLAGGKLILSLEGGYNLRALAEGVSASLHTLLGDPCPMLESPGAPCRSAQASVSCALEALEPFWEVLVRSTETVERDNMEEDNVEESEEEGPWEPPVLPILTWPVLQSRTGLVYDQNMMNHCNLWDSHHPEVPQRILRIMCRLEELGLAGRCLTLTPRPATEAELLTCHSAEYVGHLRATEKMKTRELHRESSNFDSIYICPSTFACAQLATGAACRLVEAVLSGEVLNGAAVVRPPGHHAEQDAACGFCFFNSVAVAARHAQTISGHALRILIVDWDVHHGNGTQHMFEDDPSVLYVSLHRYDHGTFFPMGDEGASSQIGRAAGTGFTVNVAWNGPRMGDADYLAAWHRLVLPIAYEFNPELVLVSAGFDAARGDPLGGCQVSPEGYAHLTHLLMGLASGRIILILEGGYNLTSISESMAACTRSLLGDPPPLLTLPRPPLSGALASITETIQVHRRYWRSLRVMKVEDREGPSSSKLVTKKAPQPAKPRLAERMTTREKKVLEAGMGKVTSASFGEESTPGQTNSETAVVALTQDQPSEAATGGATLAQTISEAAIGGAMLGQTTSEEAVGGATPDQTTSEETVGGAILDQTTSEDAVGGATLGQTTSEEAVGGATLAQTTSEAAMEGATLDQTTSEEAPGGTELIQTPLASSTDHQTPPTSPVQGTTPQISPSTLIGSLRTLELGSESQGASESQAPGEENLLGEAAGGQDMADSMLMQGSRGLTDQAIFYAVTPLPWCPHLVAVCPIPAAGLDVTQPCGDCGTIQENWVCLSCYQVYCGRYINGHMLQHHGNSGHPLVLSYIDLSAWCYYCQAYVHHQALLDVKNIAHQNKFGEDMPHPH
Method in brief: as §1

Compound	IC50 (human recombinant HDAC1)	HDAC6 selectivity (fold) (human recombinant HDAC6)	IC50 (human recombinant HDAC6)
O=C1OCC(c2ccccn2)=NN1Cc1ncc(-c2nnc(C(F)F)o2)cc1F [Compound 73, 3-[[5-[5-(difluoromethyl)-1,3,4-oxadiazol-2-yl]-3-fluoro-2-pyridyl]methyl]-5-(2-pyridyl)-6H-1,3,4-oxadiazin-2-one]	> 50 µM	442 fold	0.113 µM
O=C1OCC(c2ccc(-c3ccccn3)s2)=NN1Cc1ccc(-c2nnc(C(F)F)o2)cn1 [Compound 74, 3-[[5-[5-(difluoromethyl)-1,3,4-oxadiazol-2-yl]-2-pyridyl]methyl]-5-[5-(2-pyridyl)-2-thienyl]-6H-1,3,4-oxadiazin-2-one]	> 50 µM	828 fold	0.0604 µM
FC(F)c1nnc(-c2ccc(Cn3nc(-c4ccc(CN5CCN(C6CCCC6)CC5)cc4)oc3=S)nc2)o1 [Compound 79, 5-[4-[(4-cyclopentylpiperazin-1-yl)methyl]phenyl]-3-[[5-[5-(difluoromethyl)-1,3,4-oxadiazol-2-yl]-2-pyridyl]methyl]-1,3,4-oxadiazol-2-thione]	> 50 µM	461 fold	0.108 µM
Fc1c(-c2nn(Cc3ccc(-c4nnc(C(F)F)o4)cn3)c(=S)o2)cccc1C1CCN(C2CCC2)CC1 [Compound 81, 5-[3-(1-cyclobutyl-4-piperidyl)-2-fluoro-phenyl]-3-[[5-[5-(difluoromethyl)-1,3,4-oxadiazol-2-yl]-2-pyridyl]methyl]-1,3,4-oxadiazol-2-thione]	> 50 µM	576 fold	0.0868 µM
Fc1c(-c2nn(Cc3ccc(-c4nnc(C(F)F)o4)cn3)c(=S)o2)cccc1C1CCN(C2CCCC2)CC1 [Compound 82, 5-[3-(1-cyclopentyl-4-piperidyl)-2-fluoro-phenyl]-3-[[5-[5-(difluoromethyl)-1,3,4-oxadiazol-2-yl]-2-pyridyl]methyl]-1,3,4-oxadiazol-2-thione]	> 50 µM	453 fold	0.11 µM

Continued, values first:

IC50 (human recombinant HDAC1)	HDAC6 selectivity (fold) (human recombinant HDAC6)	IC50 (human recombinant HDAC6)	Compound
> 50 µM	1149 fold	0.0435 µM	CN1CCN(c2cccc(-c3nn(Cc4ccc(-c5nnc(C(F)F)o5)cn4)c(=S)o3)c2)CC1 [Compound 75, 3-[[5-[5-(difluoromethyl)-1,3,4-oxadiazol-2-yl]-2-pyridyl]methyl]-5-[3-(4-methylpiperazin-1-yl)phenyl]-1,3,4-oxadiazol-2-thione]
> 50 µM	945 fold	0.0529 µM	CC(C)N1CCN(c2cccc(-c3nn(Cc4ccc(-c5nnc(C(F)F)o5)cn4)c(=S)o3)c2)CC1 [Compound 76, 3-[[5-[5-(difluoromethyl)-1,3,4-oxadiazol-2-yl]-2-pyridyl]methyl]-5-[3-(4-isopropylpiperazin-1-yl)phenyl]-1,3,4-oxadiazol-2-thione]
> 50 µM	669 fold	0.0747 µM	CC(C)N1CCN(Cc2ccc(-c3nn(Cc4ccc(-c5nnc(C(F)F)o5)cn4)c(=S)o3)cc2)CC1 [Compound 77, 3-[[5-[5-(difluoromethyl)-1,3,4-oxadiazol-2-yl]-2-pyridyl]methyl]-5-[4-[(4-isopropylpiperazin-1-yl)methyl]phenyl]-1,3,4-oxadiazol-2-thione]
> 50 µM	498 fold	0.1 µM	FC(F)c1nnc(-c2ccc(Cn3nc(-c4ccc(CN5CCN(C6CCC6)CC5)cc4)oc3=S)nc2)o1 [Compound 78, 5-[4-[(4-cyclobutylpiperazin-1-yl)methyl]phenyl]-3-[[5-[5-(difluoromethyl)-1,3,4-oxadiazol-2-yl]-2-pyridyl]methyl]-1,3,4-oxadiazol-2-thione]
> 50 µM	649 fold	0.0771 µM	CC(C)N1CCC(c2cccc(-c3nn(Cc4ccc(-c5nnc(C(F)F)o5)cn4)c(=S)o3)c2F)CC1 [Compound 80, 3-[[5-[5-(difluoromethyl)-1,3,4-oxadiazol-2-yl]-2-pyridyl]methyl]-5-[2-fluoro-3-(1-isopropyl-4-piperidyl)phenyl]-1,3,4-oxadiazol-2-thione]
